According to patent US20220260565A1, “METHODS OF TREATING AND DIAGNOSING INFLAMMATORY BOWEL DISEASE” (priority 2018, published 2022):

Key:
[1] = system: fungal microbiota; test: Fungal microbiota in stool of antifungal-treated mice (ITS1 sequencing); assay type: in vivo; details: 3 weeks in drinking water, stool DNA
Description: (§1) FIG. 24A-24D Antifungal treatment affects bacterial and fungal microbiota in mice. Mice were treated or not for 3 weeks with fluconazole or amphotericin B in their drinking water, DNA was isolated from stool, and fungal and bacterial communities were assessed by sequencing ITS1 and 16S rDNA regions respectively. […] D) Examples of bacteria (families) regulated upon antifungal treatment. * p<0.05; ** p<0.01; *** p<0.001; LDA scores from LEfSe analysis.
(§2) We will investigate the impact of antifungal therapy on the mucosa-associated microbiota in patients by examining samples collected before and after anti-fungal therapy. We will investigate the association between the mycobiota detected by high-throughput ITS (fungal) and 16S (bacterial) rDNA sequencing as well as targeted quantitative PCR in colonic washes, biopsies, and fecal samples. In preliminary studies in mice, we have observed that oral treatment with antifungal drugs (we have tried several) alters the fungal microbiota in fecal samples, which is, of course, not surprising (FIGS. 24A&C), but it also affects the bacterial microbiota (FIGS. 24B&D). The interrelationship between bacterial and fungal microbiota and the susceptibility of these communities to manipulation by antifungal drugs in mice is being further studied in other funded work. […]

[2] = system: bacterial microbiota; test: Bacterial microbiota in stool of antifungal-treated mice (16S rDNA sequencing); assay type: in vivo; details: 3 weeks in drinking water, stool DNA
Description: as §1, §2

[3] = system: acute colitis induced by DSS in wild type and Clec7a−/− mice; test: DSS colitis in wild type and Dectin-1-deficient (Clec7a-/-) mice treated with fluconazole; assay type: in vivo; details: DSS in drinking water
Excerpt: DSS colitis in Dectin-1-deficient mice: The inventors examined whether defective immune recognition of fungi could have an impact on colitis and looked at the effects of inducing acute colitis in mice lacking Dectin-1 (Clec7a−/−). The inventors co-housed wild type and Clec7a−/− mice for two weeks before inducing acute colitis by administration of 3% DSS in the drinking water. […] Consistent with the histology, the inventors detected augmented production of IFN-γ and IL-17 in mesenteric lymph nodes (MLNs) and colons from Clec7a−/− mice (FIG. 12D, 12E). Furthermore, in colons of Clec7a−/− mice the inventors detected increased message for TNF-α, IL-23p19 and IL-17a, cytokines previously associated with intestinal inflammation (Not shown).

[4] = system: Malassezia; test: Malassezia levels in stool of mice after oral fluconazole (rDNA sequencing); assay type: in vivo; details: oral fluconazole for 1 week
Description: FIG. 22 depicts Efficacy of azole drug on colonic Malassezia in mice. Mice were treated with oral fluconazole for 1 week, and Malassezia levels were measured in the stool by rDNA sequencing.

[5] = system: Malassezia spp.; details: cited from earlier work
[6] = in vivo; cited from earlier work
[7] = from package insert; cited from earlier work

SMILES | effect on fungal microbiota (ITS1 sequencing) [1] | effect on bacterial microbiota (16S sequencing, LEfSe) [2] | effect on colitis ([3]; Dectin-1 knockout (Clec7a−/−) animals) | effect on colitis ([3]; wild type animals) | Malassezia levels in the stool [4] | MIC against most Malassezia spp. [5] | concentration in feces [6] | first pass effect [6] | common adverse events in clinical trials [7]
C[C@@H]1[C@H](O)[C@@H](C)/C=C/C=C/C=C/C=C/C=C/C=C/C=C/[C@H](O[C@@H]2O[C@H](C)[C@@H](O)[C@H](N)[C@@H]2O)C[C@@H]2O[C@](O)(C[C@@H](O)C[C@@H](O)[C@H](O)CC[C@@H](O)C[C@@H](O)CC(=O)O[C@H]1C)C[C@H](O)[C@H]2C(=O)O [amphotericin B] | alter the fungal community | changes in bacterial microbiota |  |  |  |  |  |  | 
OC(Cn1cncn1)(Cn1cncn1)c1ccc(F)cc1F [fluconazole] | alter the fungal community | changes in bacterial microbiota | abrogated colitis | little or no effect | depletion of Malassezia from the stool |  |  |  | 
CC[C@@H]([C@H](C)O)n1ncn(-c2ccc(N3CCN(c4ccc(OC[C@@H]5CO[C@@](Cn6cncn6)(c6ccc(F)cc6F)C5)cc4)CC3)cc2)c1=O [posaconazole] |  |  |  |  |  | low | high | low | diarrhea, dyspepsia, nausea, fever, headache, coughing, and hypokalemia
